From patent publication US10370355B2, “Tetrahydroisoquinoline derivatives” (UCB Biopharma SPRL, priority 2016, dated 2019) come the findings set out here.

Structures are written as SMILES. A value given as a limit tells only on which side of the number the result lay.

This test deals with T1, dopamine D1 receptor (Homo sapiens, UniProt P21728).
T1 construct: host or cells: LMtk (Ltk-) mouse fibroblast cells
T1 sequence (P21728 whole entry): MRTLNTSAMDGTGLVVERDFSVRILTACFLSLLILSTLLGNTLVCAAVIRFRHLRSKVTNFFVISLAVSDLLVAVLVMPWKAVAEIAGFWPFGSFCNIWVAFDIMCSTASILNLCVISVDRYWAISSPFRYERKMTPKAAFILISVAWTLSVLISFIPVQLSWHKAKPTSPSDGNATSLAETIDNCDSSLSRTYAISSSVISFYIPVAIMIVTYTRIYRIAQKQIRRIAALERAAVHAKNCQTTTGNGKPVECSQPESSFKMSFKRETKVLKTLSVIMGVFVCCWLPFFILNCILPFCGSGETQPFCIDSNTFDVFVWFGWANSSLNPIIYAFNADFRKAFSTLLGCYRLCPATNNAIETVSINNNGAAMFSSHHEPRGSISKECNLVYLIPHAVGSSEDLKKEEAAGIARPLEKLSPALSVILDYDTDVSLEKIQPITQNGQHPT
In words: cAMP HTRF potentiation assay (presence of EC20 dopamine). In kind it is cell-based. The note with it: potentiation of cAMP in presence of EC20 dopamine (1.1 nM); LMtk (Ltk-) mouse fibroblast cells expressing the dopamine D1 receptor. An excerpt: The present assay allows to measure respectively the effects of compounds of the Examples in the absence of dopamine (“activation assay”) and the effects of compounds of the Examples in the presence of dopamine (“potentiation assay”).
The potentiation assay measures the ability of compounds to increase the levels of cAMP produced by a low-threshold concentration of dopamine. The concentration of dopamine used ([EC20]) is designed to produce 20% stimulation compared to the maximal response (100%) seen with increasing the concentration of dopamine. To measure this potentiation we incubate increasing concentrations of the compound with the [EC2O] of dopamine and measure the potentiation as increases in cAMP production. The pEC50 of a compound is the −log 10 of the concentration of the compound which produces 50% of the potentiation of the cAMP levels and the Erel is the relative efficacy, defined as the maximal % potentiation produced by the compound compared to the maximal response produced by increasing concentrations of dopamine (Erel of 1=dopamine maximum response).
Cells were cultured at 37° C. in a humidified atmosphere of 5% CO2. Cells were grown in DMEM-F12+GlutaMAX™-I medium (GIBCO®, Invitrogen, Merelbeke, Belgium) containing 10% fetal bovine serum (BioWhittaker®, Lonza, Verviers, Belgium), 400 μg/mL Geneticin (GIBCO®), 100 IU/mL Penicillin and 100 IU/mL Streptomycin (Pen-Strep solution, BioWhittaker®).
The measurement of changes in intracellular cyclic adenosinemonophopshpate (cAMP) was determined using the HTRF cAMP dynamic assay kit from CisBio (Codolet, France). Using homogenous time-resolved fluoresence technology, the assay is based on competition between native cAMP produced by cells and cAMP labelled with the dye d2. The tracer binding is determined by an anti-cAMP antibody labeled with cryptate. The effects of the compound alone (agonism) was determined by performing the assay in the absence of dopamine, whilst the effect of the compound as a positive allosteric modulator (PAM) was determined in the presence of an EC20 concentration of dopamine. Cells (20,000 per well) are incubated in 384 plates for 1 hour at room temperature in a final volume of 20 μLHBSS (Lonza, with calcium, magnesium and HEPES buffer 20 mM, pH 7.4) containing: isobutyl methylxanthine (Sigma, 0.1 mM final), varying concentrations of test compound (typically […] to 10^−4.5M) in the presence and absence of dopamine (1.1 nM final). The reaction is then terminated and the cells lysed by adding the d2 detection reagent in lysis buffer (10 microL) and the cryptate reagent in lysis buffer (10 microl) according to manufacturer's instructions. This is then incubated for a further 60 min at room temperature and changes in HTRF fluorescent emission ratio determined according to manufacturer's instructions using an Envision plate reader (Perkin Elmer, Zaventem, Belgium) with laser excitation. All incubations were performed in duplicate and results were compared to a concentration-effect curve to dopamine. (10^−11M to 10^−6M).
Data was analyzed using Excel and PRISM (GraphPad Software) to obtain pEC50 and Erel using the 4-parameter logistic equation (DeLean et al, 1978) where Erel is the fitted maximal response of the test compound minus basal expressed as a percentage relative to that obtained with dopamine which was defined as 100%.
In general terms: In TR-FRET formats the signal depends on donor and acceptor labels being close together.
One may read the EC50 as the concentration needed to bring the measured effect to its halfway point. For the molecule `C[C@H]1c2cccc(C(C)(O)C(F)F)c2CCN1C(=O)Cc1c(Cl)ccc2nn(C)c(Cl)c12` (single isomer, unassigned) [Example 12], the EC50 is 0.0316 to 0.1 µM.
The same measure for `C[C@H]1c2cccc([C@](C)(O)CF)c2CCN1C(=O)Cc1c(Cl)cnc2c1c(Cl)nn2C` [Example 20, 2-(3,5-dichloro-1-methyl-pyrazolo[3,4-b]pyridin-4-yl)-1-[(1S)-5-((1S)-2-fluoro-1-hydroxy-1-methyl-ethyl)-1-methyl-3,4-dihydro-1H-isoquinolin-2-yl]ethanone]: not above 0.0316 µM; for `C[C@H]1c2cccc([C@@](C)(O)CF)c2CCN1C(=O)Cc1c(Cl)ccc2[nH]nc(Cl)c12` [Example 2, 2-(3,5-dichloro-1H-indazol-4-yl)-1-[(1S)-5-[(1R)-2-fluoro-1-hydroxy-1-methyl-ethyl]-1-methyl-3,4-dihydro-1H-isoquinolin-2-yl]ethanone]: not above 0.0316 µM.
With `C[C@H]1c2cccc([C@@H](O)C(F)F)c2CCN1C(=O)Cc1c(Cl)ccc2c1c(Cl)nn2C` [Example 10, 2-(3,5-dichloro-1-methyl-indazol-4-yl)-1-[(1S)-5-[(1R)-2,2-difluoro-1-hydroxy-ethyl]-1-methyl-3,4-dihydro-1H-isoquinolin-2-yl]ethanone] the figure was 0.0316 to 0.1 µM; with `C[C@H]1c2cccc(C(C)(O)C(F)F)c2CCN1C(=O)Cc1c(Cl)cnc2c1c(Cl)nn2C` (single isomer, unassigned) [Example 21], not above 0.0316 µM; with `C[C@H]1c2cccc(C(O)(CF)CF)c2CCN1C(=O)Cc1c(Cl)ccc2c1c(Cl)nn2C` [Example 28, 2-(3,5-dichloro-1-methyl-indazol-4-yl)-1-[(1S)-5-[2-fluoro-1-(fluoromethyl)-1-hydroxy-ethyl]-1-methyl-3,4-dihydro-1H-isoquinolin-2-yl]ethanone], not above 0.0316 µM.
With `C[C@H]1c2cccc([C@@](C)(O)CF)c2CCN1C(=O)Cc1c(Cl)cnc2c1c(Cl)nn2C` [Example 19, 2-(3,5-dichloro-1-methyl-pyrazolo[3,4-b]pyridin-4-yl)-1-[(1S)-5-((1R)-2-fluoro-1-hydroxy-1-methyl-ethyl)-1-methyl-3,4-dihydro-1H-isoquinolin-2-yl]ethanone] the figure was 0.0316 to 0.1 µM.
As to `C[C@H]1c2cccc([C@H](O)C(F)F)c2CCN1C(=O)Cc1c(Cl)ccc2nn(C)c(Cl)c12` [Example 9, 2-(3,5-dichloro-2-methyl-indazol-4-yl)-1-[(1S)-5-[(1S)-2,2-difluoro-1-hydroxy-ethyl]-1-methyl-3,4-dihydro-1H-isoquinolin-2-yl]ethanone], the EC50 was 0.0316 to 0.1 µM.
The same measure for `C[C@H]1c2cccc(C(C)(O)C(F)F)c2CCN1C(=O)Cc1c(Cl)cnc2[nH]nc(Cl)c12` (single isomer, unassigned) [Example 16]: not above 0.0316 µM.
With `C[C@H]1c2cccc([C@](C)(O)CF)c2CCN1C(=O)Cc1c(Cl)ccc2c1c(Cl)nn2C` [Example 25, 2-(3,5-dichloro-1-methyl-indazol-4-yl)-1-[(1S)-5-[(1S)-2-fluoro-1-hydroxy-1-methyl-ethyl]-1-methyl-3,4-dihydro-1H-isoquinolin-2-yl]ethanone] the figure was 0.0316 to 0.1 µM.
With `C[C@H]1c2cccc([C@@H](O)C(F)F)c2CCN1C(=O)Cc1c(Cl)ccc2[nH]nc(Cl)c12` [Example 4, 2-(3,5-dichloro-1H-indazol-4-yl)-1-[(1S)-5-[(1R)-2,2-difluoro-1-hydroxy-ethyl]-1-methyl-3,4-dihydro-1H-isoquinolin-2-yl]ethanone] the figure was not above 0.0316 µM.
Turning to `C[C@H]1c2cccc([C@@](C)(O)CF)c2CCN1C(=O)Cc1c(Cl)cnc2[nH]nc(Cl)c12` [Example 15, 2-(3,5-dichloro-1H-pyrazolo[3,4-b]pyridin-4-yl)-1-[(1S)-5-[(1R)-2-fluoro-1-hydroxy-1-methyl-ethyl]-1-methyl-3,4-dihydro-1H-isoquinolin-2-yl]ethanone], the EC50 was not above 0.0316 µM.
